Measured values: patent publication US7858653B2, “2-imidazoles” (Hoffman-La Roche Inc., priority 2006, dated 2010)

target: T1, mouse TAAR1 (Mus musculus, UniProt Q923Y8); assay: Radioligand binding assay on membranes of HEK293 cells stably expressing TAAR1; conditions: TAAR1 membrane binding; species not given; read-out: calculated Kd value of the radioligand
T1 construct: expressed in transfected cells; host or cells: HEK293 cells (ATCC # CRL-1573), stably transfected with pIRESneo2 expression plasmid; membranes prepared
T1 sequence (Q923Y8 whole entry): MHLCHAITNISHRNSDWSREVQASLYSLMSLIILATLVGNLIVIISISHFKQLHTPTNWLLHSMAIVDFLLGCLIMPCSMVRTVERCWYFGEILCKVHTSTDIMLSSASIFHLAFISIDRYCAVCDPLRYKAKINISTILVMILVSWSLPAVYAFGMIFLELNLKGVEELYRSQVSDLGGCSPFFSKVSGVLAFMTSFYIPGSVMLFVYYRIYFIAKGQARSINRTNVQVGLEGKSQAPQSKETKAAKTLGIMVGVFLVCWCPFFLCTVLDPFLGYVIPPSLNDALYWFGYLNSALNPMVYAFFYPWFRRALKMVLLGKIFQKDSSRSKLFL
Procedure: Construction of TAAR Expression Plasmids and Stably Transfected Cell Lines
For the construction of expression plasmids the coding sequences of human, rat and mouse TAAR1 were amplified from genomic DNA essentially as described by Lindemann et al. (2005) genomics 85, 372-385. The Expand High Fidelity PCR System (Roche Diagnostics) was used with 1.5 mM Mg^2+ and purified PCR products were cloned into pCR2.1-TOPO cloning vector (Invitrogen) following the instructions of the manufacturer. PCR products were subcloned into the pIRESneo2 vector (BD Clontech, Palo Alto, Calif.), and expression vectors were sequence verified before introduction in cell lines.
HEK293 cells (ATCC # CRL-1573) were cultured essentially as described Lindemann et al. (2005) genomics 85, 372-385. For the generation of stably transfected cell lines HEK293 cells were transfected with the pIRESneo2 expression plasmids containing the TAAR coding sequences (described above) with Lipofectamine 2000 (Invitrogen) according to the instructions of the manufacturer, and 24 hours post transfection the culture medium was supplemented with 1 mg/ml G418 (Sigma, Buchs, Switzerland). After a culture period of about 10 d clones were isolated, expanded and tested for responsiveness to trace amines (all compounds purchased from Sigma) with the cAMP Biotrak Enzyme immunoassay (EIA) System (Amersham) following the non-acetylation EIA procedure provided by the manufacturer.
Membrane Preparation and Radioligand Binding
Cells at confluence were rinsed with ice-cold phosphate buffered saline without Ca^2+ and Mg^2+ containing 10 mM EDTA and pelleted by centrifugation at 1000 rpm for 5 minutes at 4° C. The pellet was then washed twice with ice-cold phosphate buffered saline and the cell pellet was frozen immediately by immersion in liquid nitrogen and stored until use at −80° C. The cell pellet was then suspended in 20 ml HEPES-NaOH (20 mM), pH 7.4 containing 10 mM EDTA, and homogenized with a Polytron (PT 3000, Kinematica) at 10,000 rpm for 10 seconds. The homogenate was centrifuged at 48,000×g for 30 minutes at 4° C. and the pellet resuspended in 20 ml HEPES-NaOH (20 mM), pH 7.4 containing 0.1 mM EDTA (buffer A), and homogenized with a Polytron at 10,000 rpm for 10 seconds. The homogenate was then centrifuged at 48,000×g for 30 minutes at 4° C. and the pellet resuspended in 20 ml buffer A, and homogenized with a Polytron at 10,000 rpm for 10 seconds. Protein concentration was determined by the method of Pierce (Rockford, Ill.). The homogenate was then centrifuged at 48,000×g for 10 minutes at 4° C., resuspended in HEPES-NaOH (20 mM), pH 7.0 including MgCl2 (10 mM) and CaCl2 ([…]) (buffer B) at 200 μg protein per ml and homogenized with a Polytron at 10,000 rpm for 10 seconds.
Binding assay was performed at 4° C. in a final volume of 1 ml, and with an incubation time of 30 minutes. The radioligand [^3H]-rac-2-(1,2,3,4-tetrahydro-1-naphthyl)-2-imidazoline was used at a concentration equal to the calculated Kd value of 60 nM to give a total binding at around 0.1% of the total added radioligand concentration, and a specific binding which represented approximately 70-80% of the total binding. Non-specific binding was defined as the amount of [^3H]-rac-2-(1,2,3,4-tetrahydro-1-naphthyl)-2-imidazoline bound in the presence of the appropriate unlabelled ligand (10 μM). Competing ligands were tested in a wide range of concentrations (10 pM-30 μM). […] Each experiment was performed in duplicate. All incubations were terminated by rapid filtration through UniFilter-96 plates (Packard Instrument Company) and glass filter GF/C, pre-soaked for at least 2 hours in polyethylenimine 0.3%, and using a Filtermate 96 Cell Harvester (Packard Instrument Company). […]

Structure (SMILES)	Kd
c1ccc2c(c1)CCCC2C1=NCCN1 (racemic) [[^3H]-rac-2-(1,2,3,4-tetrahydro-1-naphthyl)-2-imidazoline, reference compound]	60 nM

same assay, conditions: mouse TAAR1; radioligand [3H]-rac-2-(1,2,3,4-tetrahydro-1-naphthyl)-2-imidazoline at 60 nM; 4° C., 30 minutes

Structure (SMILES)	Ki
CC(Nc1ncc[nH]1)c1ccccc1 (racemic) [Example 9, (R,S)-(1H-Imidazol-2-yl)-(1-phenyl-ethyl)-amine]	0.46 µM
Cc1ccccc1C(C)Nc1ncc[nH]1 (racemic) [Example 21, (R,S)-(1H-Imidazol-2-yl)-(1-o-tolyl-ethyl)-amine]	0.81 µM
CC(Nc1ncc[nH]1)c1cccc(Cl)c1Cl (racemic) [Example 22, (R,S)-[1-(2,3-Dichloro-phenyl)-ethyl]-(1H-imidazol-2-yl)-amine]	0.076 µM
CC(Nc1ncc[nH]1)c1ccccc1Cl (racemic) [Example 29, (RS)-[1-(2-Chloro-phenyl)-ethyl]-(1H-imidazol-2-yl)-amine]	0.24 µM
COC(Cc1ncc[nH]1)c1cccc(Cl)c1 (stereo not shown) [Example 1, 2-[2-(3-Chloro-phenyl)-2-methoxy-ethyl]-1H-imidazole]	0.78 µM
Clc1cccc(SCc2ncc[nH]2)c1Cl [Example 3, 2-(2,3-Dichloro-phenylsulfanylmethyl)-1H-imidazole]	0.14 µM
Clc1cccc(CNc2ncc[nH]2)c1 [Example 6, (3-Chloro-benzyl)-(1H-imidazol-2-yl)-amine]	0.86 µM
Clc1ccc(CNc2ncc[nH]2)cc1Cl [Example 7, (3,4-Dichloro-benzyl)-(1H-imidazol-2-yl)-amine]	0.47 µM
Clc1cccc(CNc2ncc[nH]2)c1Cl [Example 8, (2,3-Dichloro-benzyl)-(1H-imidazol-2-yl)-amine]	0.18 µM
Cc1cccc(CNc2ncc[nH]2)c1 [Example 11, (1H-Imidazol-2-yl)-(3-methyl-benzyl)-amine]	0.94 µM
Fc1cccc(CNc2ncc[nH]2)c1 [Example 16, (3-Fluoro-benzyl)-(1H-imidazol-2-yl)-amine]	0.98 µM
c1ccc2cc(CNc3ncc[nH]3)ccc2c1 [Example 24, (1H-Imidazol-2-yl)-naphthalen-2-ylmethyl-amine]	0.67 µM
